# Source: paper PMC5866846 (Archives of Toxicology, 2017)
# Columns and labels:
# [1] = test system: CYP3A4; assay: CYP3A4 activity in upcyte hepatocytes after treatment (probe substrate cocktail)
# Method: (§1) Cells were cultivated in hepatocyte culture medium at 37 °C and 5 °% CO2 in a humidified incubator. Before starting experiments, cells were cultivated in hepatocyte culture medium containing 0.5% (v/v) DMSO (Preculture medium) for 5 days (density of 0.8 × 10^4 cells/cm^2) and were subcultivated in high-performance medium containing 0.1% (v/v) DMSO (Metabolism conditioning medium) for 3–5 days (density of 1.6 × 10^5 cells/cm^2, confluence). The medium was replaced every 2–3 days.
# (§2) In HLM and supersome™ incubations the formation rate is given as nmol µg^−1 min^−1 and fmol pmol^−1 min^−1, respectively, and was calculated as the mean ± SD. […] The intrinsic Clearance (Clint) was given as Vmax/Km ratio. […] Activity of CYP enzymes in induction assays is given as the fold-change (mean ± SD) compared to the corresponding DMSO-treated control. […] Gene expression patterns of treated cells are given as fold-change compared to the corresponding DMSO-treated control samples, as described above. […] In induction and inhibition experiments corresponding EC50 and IC50 values were calculated by nonlinear regression. In all experiments a level of probability (p) ≤ 0.05 for statistical testing was considered significant.
# (§3) As control 0.05 % DMSO was used. The basal CYP activity and induction of CYP activity compared to the DMSO control were measured via HPLC-ESI-MS/MS.
# [2] = molecular target: CYP2C9 (Homo sapiens, UniProt P11712); assay: CYP2C9 activity in upcyte hepatocytes after treatment (probe substrate cocktail); assay type: cell-based; set-up: host or cells: upcyte hepatocytes 653-03 and 653-03 #138 (653-03 2D6); settings: 5 µM, 72 h
# Chain of CYP2C9 (P11712 whole entry): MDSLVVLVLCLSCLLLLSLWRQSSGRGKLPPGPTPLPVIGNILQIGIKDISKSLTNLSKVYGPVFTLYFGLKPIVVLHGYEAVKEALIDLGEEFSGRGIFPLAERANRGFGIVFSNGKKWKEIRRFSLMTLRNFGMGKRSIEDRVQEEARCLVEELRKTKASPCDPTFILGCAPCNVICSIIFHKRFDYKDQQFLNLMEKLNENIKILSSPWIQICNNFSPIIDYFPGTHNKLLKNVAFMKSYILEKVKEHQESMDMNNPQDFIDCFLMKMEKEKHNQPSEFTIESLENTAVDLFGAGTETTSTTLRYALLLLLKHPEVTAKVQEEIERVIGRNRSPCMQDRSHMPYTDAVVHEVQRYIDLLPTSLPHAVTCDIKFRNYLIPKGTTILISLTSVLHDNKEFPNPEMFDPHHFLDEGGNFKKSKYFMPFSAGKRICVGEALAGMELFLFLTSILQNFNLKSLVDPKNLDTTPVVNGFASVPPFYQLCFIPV
# Method: as §1, §2, §3
# [3] = test system: single CYP isoenzymes (Supersomes); assay: Formation of estrogen-like metabolites in Supersomes specific for single CYP isoenzymes; assay type: in vitro ADME; settings: 50 µM precursors
# Description: Supersomes™ were obtained from Corning Incorporated, Wiesbaden, Germany, and were specific for CYP isoenzymes CYP1A1, 1A2, 2A6, 2B6, 2C8, 2C9, 2C19, 2D6, 3A4, 3A5 and 19A1. All Supersomes™ contained oxidoreductase. Cytochrome b5 was present in the Supersomes™ of CYP2A6, 2B6, 2C8, 2C9, 3A4 and 3A5. UDP-glucuronosyltransferases (UGT)containing Supersomes™ were specific for the following isoenzymes: 1A1, 1A2, 1A3, 1A4, 1A6, 1A7, 1A8, 1A9, 1A10, 2B4, 2B7, 2B10, 2B15 and 2B17.
# The reaction was started by adding a NADPH regenerating system (5 mM MgCl2, 5 mM glucose-6-phosphate, 0.5 mM NADP^+ and 10 U glucose-6-phosphate-dehydrogenase in 100 mM sodium phosphate buffer pH 7.4) to the samples and immediately put in a 37 °C water bath for 30 min. The reaction was stopped with the same volume of acetonitrile (ACN) containing 1% of acetic acid together with the corresponding deuterated internal standards. […] Metabolites were analyzed by HPLC-ESI-MS/MS.
# Protein was precipitated by the addition of ACN containing 1% of acetic acid and the corresponding deuterated internal standards to the same volume of the sample followed by centrifugation at 20.000 g for 15 min at RT. […] Glucuronides of estrogen-like metabolites were detected separately via MS/MS-measurements in negative ESI MRM mode.
# [4] = test system: estrogen receptor; set-up: method as in Johnson et al. [1989]; Murphy et al. [1990]; settings: in vitro, estrogen-dependent breast cancer cell lines; ref Johnson et al. [1989]; Murphy et al. [1990]; cited from earlier work
# [5] = Formation kinetics of Tam-Bis, (Z)- and (E)-Met E in HLM with increasing substrate concentrations; assay type: in vitro ADME, human; settings: substrate 1 to 50 µM, Michaelis-Menten
# Method: (§4) The reaction was started by adding a NADPH regenerating system (5 mM MgCl2, 5 mM glucose-6-phosphate, 0.5 mM NADP^+ and 10 U glucose-6-phosphate-dehydrogenase in 100 mM sodium phosphate buffer pH 7.4) to the samples and immediately put in a 37 °C water bath for 30 min. The reaction was stopped with the same volume of acetonitrile (ACN) containing 1% of acetic acid together with the corresponding deuterated internal standards. Regarding incubations with Supersomes™ containing UGTs, 5 µg of protein was incubated with 250 mM MgCl2 and 2.5 ng of alamethicin for 30 min on ice, followed by 10 min at 37 °C in a water bath. Subsequently, the Supersomes™ were incubated with 10 µM of substrates (Tam-Bis, (E)- and (Z)-Met E) and the glucuronidation was started by addition of 10 mM of uridine 5′-diphospho-glucuronic acid to the samples in a water bath at 37 °C for 30 min. The reaction was stopped as described above. Metabolites were analyzed by HPLC-ESI-MS/MS.
# For the assessment of formation kinetics of Tam-Bis, (E)- and (Z)-Metabolite E, HLM were incubated with increasing substrate concentrations ranging from 1 to 50 µM as described above. As control for each concentration a sample without NADPH-regenerating system was prepared. […]
# [6] = molecular target: CYP2C19 (Homo sapiens, UniProt P33261); assay: CYP2C19 activity in upcyte hepatocytes after treatment (probe substrate cocktail); assay type: cell-based; set-up: host or cells: upcyte hepatocytes 653-03 and 653-03 #138 (653-03 2D6); settings: human, probe S-mephenytoin (100 µM), upcyte hepatocytes, 50 pM to 5 µM, read-out: EC50 of induction of CYP2C19 activity
# Chain of CYP2C19 (P33261 whole entry): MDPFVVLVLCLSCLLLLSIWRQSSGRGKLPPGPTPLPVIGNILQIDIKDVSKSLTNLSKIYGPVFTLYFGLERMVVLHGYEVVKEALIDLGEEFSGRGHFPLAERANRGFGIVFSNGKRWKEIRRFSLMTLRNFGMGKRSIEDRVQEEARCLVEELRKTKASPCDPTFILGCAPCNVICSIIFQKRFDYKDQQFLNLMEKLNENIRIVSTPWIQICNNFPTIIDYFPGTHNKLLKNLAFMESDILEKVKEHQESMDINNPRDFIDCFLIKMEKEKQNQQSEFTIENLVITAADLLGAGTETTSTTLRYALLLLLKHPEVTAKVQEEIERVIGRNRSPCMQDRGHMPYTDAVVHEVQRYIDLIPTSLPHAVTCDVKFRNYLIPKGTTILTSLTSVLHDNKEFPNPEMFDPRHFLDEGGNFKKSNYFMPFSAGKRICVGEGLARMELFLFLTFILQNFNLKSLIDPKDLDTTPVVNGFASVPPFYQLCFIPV
# Method: as §1, §2, §3
# [7] = test system: CYP3A4 gene expression; assay: CYP3A4 gene expression in upcyte hepatocytes (Fluidigm RT-PCR)
# Description: (§5) Total RNA was isolated from cells using the Direct-zol™ RNA MiniPrep kit (Zymo Research Corp., Irvine, California). cDNA was synthesized using TaqMan Reverse Transcription Reagents (Life technologies, Applera GmbH, Darmstadt, Germany) and the expression of 25 genes representative of phase I and phase II drug metabolism and transport was quantified by Fluidigm’s BioMark HD high-throughput quantitative chip platform (Fluidigm Corporation, San Francisco, USA). For relative gene expression analysis, the delta-delta-Ct (ΔΔCt) method was used: the Ct values of the target mRNA were first normalized to those of the endogenous control glyceraldehyde-3-phosphate dehydrogenase (GAPDH) followed by dividing values of experimental samples by their corresponding DMSO-treated controls to calculate the x-fold changes of mRNA expression.
# as §2, §3
# [8] = molecular target: T1, CYP2C8 (Homo sapiens, UniProt P10632); assay: CYP2C8 activity in upcyte hepatocytes after treatment (probe substrate cocktail); assay type: cell-based; set-up: host or cells: upcyte hepatocytes 653-03 and 653-03 #138 (653-03 2D6); settings: human, probe amodiaquine (5 µM), upcyte hepatocytes, 50 pM to 5 µM, read-out: EC50 of induction of CYP2C8 activity
# T1 sequence (P10632 1-490): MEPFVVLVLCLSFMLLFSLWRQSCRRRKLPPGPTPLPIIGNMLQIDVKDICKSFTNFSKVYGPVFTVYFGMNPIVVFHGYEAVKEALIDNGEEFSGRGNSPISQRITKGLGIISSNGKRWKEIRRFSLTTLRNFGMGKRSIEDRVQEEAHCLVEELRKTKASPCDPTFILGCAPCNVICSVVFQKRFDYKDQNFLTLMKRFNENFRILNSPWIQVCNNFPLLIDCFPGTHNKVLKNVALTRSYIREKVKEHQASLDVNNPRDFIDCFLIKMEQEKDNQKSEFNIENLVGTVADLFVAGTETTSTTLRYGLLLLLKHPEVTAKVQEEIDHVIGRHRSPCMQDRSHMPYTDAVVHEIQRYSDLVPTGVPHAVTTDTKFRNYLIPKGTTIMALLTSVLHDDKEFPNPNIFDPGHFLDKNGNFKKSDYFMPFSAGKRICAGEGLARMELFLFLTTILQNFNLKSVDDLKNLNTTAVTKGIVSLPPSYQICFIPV
# Method: as §1, §2, §3
# [9] = test system: CYP2B6; assay: CYP2B6 activity in upcyte hepatocytes after treatment (probe substrate cocktail)
# Method: as §1, §2, §3
# [10] = Formation of Met E and Tam-Bis from precursors in pooled human liver microsomes with and without NADPH-regenerating system; assay type: in vitro ADME; settings: DM-Tam, DDM-Tam, 50 µM, pooled HLM
# Method: as §4, with “Subsequently, the Supersomes™ were incubated with 10 µM of substrates (Tam-Bis, (E)- and (Z)-Met E) and the glucuronidation was started by addition of 10 mM of uridine 5′-diphospho-glucuronic acid to the samples in a water bath at 37 °C for 30 min. The reaction was stopped as described above.” left out
# Protein was precipitated by the addition of ACN containing 1% of acetic acid and the corresponding deuterated internal standards to the same volume of the sample followed by centrifugation at 20.000 g for 15 min at RT. […] Analytes were separated on a Zorbax Eclipse Plus C18 column (1.8 µm, 100 × 2.1 mm, Agilent technologies) and detected on a 6460 triple quadrupole mass spectrometer (Agilent technologies) in positive ESI MRM mode. Glucuronides of estrogen-like metabolites were detected separately via MS/MS-measurements in negative ESI MRM mode. […]
# [11] = test system: CYP1A2; assay: CYP1A2 activity in upcyte hepatocytes after treatment (probe substrate cocktail); settings: human, EC50 of induction of CYP1A2 activity, 50 pM to 5 µM
# Method: as §1, §2, §3
# [12] = test system: upcyte hepatocytes 653-03 and 653-03 2D6; assay: Tam metabolism in upcyte hepatocytes, cell strain not distinguished; assay type: in vitro ADME, human; settings: 1 µM Tam, all time points
# Method: The medium was replaced every 2–3 days. […].
# The culture medium was collected after 24, 48, 72, 96 and 144 h followed by metabolite measurements using HPLC-ESI-MS/MS.
# Protein was precipitated by the addition of ACN containing 1% of acetic acid and the corresponding deuterated internal standards to the same volume of the sample followed by centrifugation at 20.000 g for 15 min at RT. […] Analytes were separated on a Zorbax Eclipse Plus C18 column (1.8 µm, 100 × 2.1 mm, Agilent technologies) and detected on a 6460 triple quadrupole mass spectrometer (Agilent technologies) in positive ESI MRM mode. Glucuronides of estrogen-like metabolites were detected separately via MS/MS-measurements in negative ESI MRM mode.
# […]. […] […].
# [13] = test system: SULT1B1 gene expression; assay: SULT1B1 gene expression in upcyte hepatocytes (Fluidigm RT-PCR); assay type: cell-based, human; settings: phenobarbital 2 mM, 72 h; 'up to' = strongest decrease
# [14] = test system: NAT1 gene expression; assay: NAT1 gene expression in upcyte hepatocytes (Fluidigm RT-PCR); assay type: cell-based, human; settings: phenobarbital 2 mM, 72 h; 'up to' = strongest decrease
# [15] = test system: CYP3A4; settings: hepatocytes
# [16] = test system: CYP2C19 gene expression; assay: CYP2C19 gene expression in upcyte hepatocytes (Fluidigm RT-PCR); assay type: cell-based, human; settings: phenobarbital 2 mM, 72 h
# Description: (§6) Differences between induced and control samples were compared using Welch’s t-test (GraphPad Prism, version 5.04), when the fold-change was considered biologically relevant (1.5-fold increase or decrease in fold-changes) and corrected for multiple testing according to Bonferroni. […] An unpaired t-test assuming unequal variances was used for testing of differences in the expression patterns, when the fold-change was considered biologically relevant (1.5-fold increase or decrease in fold-changes) and corrected using Bonferroni adjustments.
# (§7) As control 0.05 % DMSO was used.
# [17] = test system: SLC22A7 gene expression; assay: SLC22A7 gene expression in upcyte hepatocytes (Fluidigm RT-PCR); assay type: cell-based, human; settings: phenobarbital 2 mM, 72 h
# Description: as §5
# (§8) In HLM and supersome™ incubations the formation rate is given as nmol µg^−1 min^−1 and fmol pmol^−1 min^−1, respectively, and was calculated as the mean ± SD. […] The intrinsic Clearance (Clint) was given as Vmax/Km ratio. […] In induction and inhibition experiments corresponding EC50 and IC50 values were calculated by nonlinear regression. […]
# as §3
# [18] = test system: UGT1A1 gene expression; assay: UGT1A1 gene expression in upcyte hepatocytes (Fluidigm RT-PCR); assay type: cell-based, human; settings: phenobarbital 2 mM, 72 h, both strains
# Description: as §5, §8, §3
# [19] = test system: CYP2C8 gene expression; assay: CYP2C8 gene expression in upcyte hepatocytes (Fluidigm RT-PCR); assay type: cell-based, human; settings: phenobarbital 2 mM, 72 h; 'up to' = strongest decrease
# Description: as §6, §7
# [20] = test system: CYP2E1 gene expression; assay: CYP2E1 gene expression in upcyte hepatocytes (Fluidigm RT-PCR); assay type: cell-based, human; settings: phenobarbital 2 mM, 72 h; 'up to' = strongest decrease
# Description: as §6, §7
# [21] = test system: SLCO1B1 gene expression; assay: SLCO1B1 gene expression in upcyte hepatocytes (Fluidigm RT-PCR); assay type: cell-based, human; settings: phenobarbital 2 mM, 72 h
# Description: as §5, §8, §3
compound,measurement,setting,value
"CCC(=C(c1ccccc1)c1ccc(O)cc1)c1ccccc1 [(E)-Met E, 4-[1,2-diphenylbut-1-en-1-yl]phenol]",induction of CYP3A4 activity compared to DMSO control,"[1]; 5 µM, 72 h, parental and derived cell line",weakly induced
same,EC50 at 72 h,"[1]; human, probe atorvastatin (35 µM), EC50 of induction of CYP3A4 activity, upcyte hepatocytes, 72 h, 50 pM to 5 µM",0.277 µM
same,induction of CYP2C9 activity,[2],weakly induced
same,formation rates lower than those of the (Z)-isomer,[3],approximately 10 times
same,agonism regarding estrogen-regulated mRNA expression,[4],full agonists
same,"V max, Bisphenol formation",[5],8.1 pmol/mg/min
same,Km,"[5]; read-out: Km, Bisphenol formation",10.4 µM
same,EC50 at 72 h,[6],> 5 µM
same,"CYP3A4 gene expression, induction vs DMSO control","[7]; 5 µM, 72 h, both cell strains",up to 5.6 fold
same,EC50 at 72 h,[8],> 5 µM
same,EC50 at 72 h,"[9]; human, probe bupropion (25 µM)",> 5 µM
same,formation rate of the (E)-isomer compared to (Z)-Met E,[10],approximately 10%
same,EC50 at 72 h,[11],> 5 µM
same,concentration of the (E)-isomer relative to (Z)-Met E,[12],about 10%
"CCC1(c2ccccc2)C(=O)NC(=O)NC1=O [PB, phenobarbital]","SULT1B1 gene expression, down regulated to x-fold of control",[13],up to 0.5 fold
same,induction of CYP3A4 activity,[1]; hepatocytes,induced
same,"NAT1 gene expression, down regulated to x-fold of control",[14],up to 0.5 fold
same,protein expression of CYP3A4 (Western blot),[15],induced
same,"CYP2C19 gene expression, induction",[16],up to 1.5 fold
same,SLC22A7 gene expression,[17],down regulated
same,"CYP3A4 gene expression, induction","[7]; human, hepatocytes",≤ 9 fold
same,induction of CYP2B6 activity,"[9]; phenobarbital 2 mM, 72 h, both cell lines",induced
same,"UGT1A1 gene expression, induction",[18],1.8 fold
same,"CYP2C8 gene expression, decreased to x-fold of control",[19],up to 0.3 fold
same,"CYP2E1 gene expression, decreased to x-fold of control",[20],≤ 0.2 fold
same,"SLCO1B1 gene expression, induction",[21],up to 2.9 fold
